{"source": "patent US8450333B2", "about": "“Molecules for regulating cell death” (The Regents of The University of California, priority 2003, dated 2013)", "target": "T1, dynamin-1 (Homo sapiens, UniProt Q05193)", "T1 sequence (Q05193 1-864)": "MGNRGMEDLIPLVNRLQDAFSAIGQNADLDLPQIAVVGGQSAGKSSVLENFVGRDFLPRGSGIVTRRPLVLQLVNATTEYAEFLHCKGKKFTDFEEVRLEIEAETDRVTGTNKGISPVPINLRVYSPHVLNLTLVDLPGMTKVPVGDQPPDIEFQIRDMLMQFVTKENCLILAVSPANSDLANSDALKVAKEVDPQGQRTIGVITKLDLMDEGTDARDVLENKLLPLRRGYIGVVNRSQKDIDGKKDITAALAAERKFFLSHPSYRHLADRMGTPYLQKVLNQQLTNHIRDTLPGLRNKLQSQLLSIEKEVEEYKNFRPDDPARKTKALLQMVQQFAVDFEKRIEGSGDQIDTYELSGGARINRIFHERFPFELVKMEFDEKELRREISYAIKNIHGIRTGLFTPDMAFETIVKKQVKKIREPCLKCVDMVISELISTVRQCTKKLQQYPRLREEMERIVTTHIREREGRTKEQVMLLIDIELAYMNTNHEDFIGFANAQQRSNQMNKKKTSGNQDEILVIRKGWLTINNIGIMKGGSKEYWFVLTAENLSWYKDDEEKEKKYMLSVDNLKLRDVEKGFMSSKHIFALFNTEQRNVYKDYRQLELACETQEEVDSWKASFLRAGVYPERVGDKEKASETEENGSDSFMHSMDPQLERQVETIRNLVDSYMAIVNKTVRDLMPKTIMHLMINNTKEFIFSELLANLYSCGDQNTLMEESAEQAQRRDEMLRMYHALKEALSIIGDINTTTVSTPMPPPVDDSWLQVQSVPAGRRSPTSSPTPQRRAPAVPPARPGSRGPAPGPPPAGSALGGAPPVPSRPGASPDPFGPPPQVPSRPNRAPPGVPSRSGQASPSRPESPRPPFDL", "test": "Assembly-stimulated GTP hydrolysis by dynamin-1", "type": "biochemical", "description": "Our observations raise the question of whether mfisi-1 is simply a general inhibitor of GTPase super family members and/or DRPs. It seems unlikely that mfisi-1 is an inhibitor of all GTPase superfamily members, given that it has no effect on GTPase-dependent activities, such as maintenance of the actin cytoskeleton. To more directly address this question, however, we examined the effects of mfisi-1 on the DRP, dynamin-1, which functions during endocytosis in the scission of clathrin coated pits from the plasma membrane. […] We will continue to explore the specificity of mfisi-1 for DRPs by determining its effects on the mammalian Dnm1 ortholog, Drp1. […] Taken together, our data are consistent with mfisi-1 functioning in vivo as a selective inhibitor of the dynamin-related GTPase, Dnm1, to block mitochondrial fission."}
{"smiles": "COc1cc(-n2c(S)nc3ccccc3c2=O)c(Cl)cc1Cl", "note": "[mfisi-1, 3-(2,4-Dichloro-5-methoxy-phenyl)-2-mercapto-3H-quinazolin-4-one]", "values": [{"measurement": "effect on assembly-stimulated rates of GTP hydrolysis for dynamin-1", "value": "had no effect"}]}
